Results as given in patent publication US20160231319A1, “METHOD OF ENHANCING HEMATOPOIETIC CELL TRANSPLANTATION” (Verve, Ltd., priority 2014, published 2016).

Tests used:
UCB HSC = details: pulse incubation of UCB cells; clinical trial; cited from earlier work
[1] = tested on: phospho-GSK-3β in CD34+ cells from UCB; assay: UCB mononuclear cells treated with PGE2; phospho-GSK-3β expression in CD34+ cells by high-resolution flow cytometry; assay type: cell-based; details: UCB treated with reagent vehicle (DMSO) versus PGE2
Text: Using our high-resolution flow cytometric technology, we have studied HSC for measures of potency. Our conception has been that expression levels of molecules shown to be important for hematopoiesis in experimental studies may have utility in assessing the potency of HSC in terms of engraftment after transplantation.
In order to assess molecular expression level correlates of potency in UCB HSC, we treated UCB mononuclear cells with PGE2 and assessed the expression of […].
This is consistent with our previous finding that phospho-GSK-3β is a potency biomarker.

CCCCC[C@H](O)/C=C/[C@H]1[C@H](O)CC(=O)[C@@H]1C/C=C\CCCC(=O)O [PGE2, Prostaglandin E2]
potency of the HSC in terms of engraftment (UCB HSC): enhances the potency of the HSC in terms of engraftment
expression of phospho-GSK-3β in CD34+ cells [1]: able to detect differences in expression of phospho-GSK-3β
